Experimental data: ChEMBL document CHEMBL1136696, “Azalide 3,6-ketals: antibacterial activity and structure-activity relationships of aryl and hetero aryl substituted analogues” (Bioorg Med Chem Lett, 2003)
Values after ≈ are worked out from the molar mass of the structure shown.

Assays:
Format in all cases: functional
Pasteurella multocida = assay: In vitro antibacterial activity against Pasteurella multocida 59A0067
Staphylococcus aureus = assay: In vitro antibacterial activity against Staphylococcus aureus 01A0758
Escherichia coli = assay: In vitro antibacterial activity against Escherichia coli 51A0150

CC[C@H]1OC(=O)[C@H](C)[C@H]2OC3(CCN(c4cc(CO)cc(Cl)n4)CC3)O[C@](C)(C[C@@H](C)CN[C@H](C)[C@@H](O)[C@]1(C)O)[C@H](O[C@@H]1O[C@H](C)CC(N(C)C)[C@H]1O)[C@H]2C (some centres undefined)
MIC (Pasteurella multocida): 0.2 µg/mL (≈ 0.25 µM)
MIC (Staphylococcus aureus): 1.56 µg/mL (≈ 1.95 µM)
MIC (Escherichia coli): 0.78 µg/mL (≈ 0.976 µM)

CC[C@H]1OC(=O)[C@H](C)[C@H]2OC3(CCN(c4ccc(N)cc4)CC3)O[C@](C)(C[C@@H](C)CN(C)[C@H](C)[C@@H](O)[C@]1(C)O)[C@H](O[C@@H]1O[C@H](C)CC(N(C)C)[C@H]1O)[C@H]2C (some centres undefined)
MIC (Pasteurella multocida): 1.56 µg/mL (≈ 2.04 µM)
MIC (Staphylococcus aureus): 6.35 µg/mL (≈ 8.32 µM)
MIC (Escherichia coli): 12.5 µg/mL (≈ 16.4 µM)

CC[C@H]1OC(=O)[C@H](C)[C@H]2OC3(CCN(c4ncc(C(=O)OCc5ccccc5)c(C(F)(F)F)n4)CC3)O[C@](C)(C[C@@H](C)CN(C)[C@H](C)[C@@H](O)[C@]1(C)O)[C@H](O[C@@H]1O[C@H](C)CC(N(C)C)[C@H]1O)[C@H]2C (some centres undefined)
MIC (Pasteurella multocida): > 50 µg/mL
MIC (Staphylococcus aureus): 1.17 µg/mL (≈ 1.23 µM)
MIC (Escherichia coli): > 50 µg/mL

CC[C@H]1OC(=O)[C@H](C)[C@H]2OC3(CCN(c4ccc([N+](=O)[O-])cn4)CC3)O[C@](C)(C[C@@H](C)CN[C@H](C)[C@@H](O)[C@]1(C)O)[C@H](O[C@@H]1O[C@H](C)CC(N(C)C)[C@H]1O)[C@H]2C (some centres undefined)
MIC (Pasteurella multocida): 0.39 µg/mL (≈ 0.5 µM)
MIC (Staphylococcus aureus): 1.56 µg/mL (≈ 2 µM)
MIC (Escherichia coli): 3.13 µg/mL (≈ 4.01 µM)

CC[C@H]1OC(=O)[C@H](C)[C@H]2OC3(CCN(c4cc(C)c([N+](=O)[O-])cn4)CC3)O[C@](C)(C[C@@H](C)CN[C@H](C)[C@@H](O)[C@]1(C)O)[C@H](O[C@@H]1O[C@H](C)CC(N(C)C)[C@H]1O)[C@H]2C (some centres undefined)
MIC (Pasteurella multocida): 1.56 µg/mL (≈ 1.96 µM)
MIC (Staphylococcus aureus): 0.78 µg/mL (≈ 0.982 µM)
MIC (Escherichia coli): 6.25 µg/mL (≈ 7.87 µM)

CC[C@H]1OC(=O)[C@H](C)[C@H]2OC3(CCN(c4nccc(C(F)(F)F)n4)CC3)O[C@](C)(C[C@@H](C)CN[C@H](C)[C@@H](O)[C@]1(C)O)[C@H](O[C@@H]1O[C@H](C)CC(N(C)C)[C@H]1O)[C@H]2C (some centres undefined)
MIC (Pasteurella multocida): 0.78 µg/mL (≈ 0.97 µM)
MIC (Staphylococcus aureus): 1.56 µg/mL (≈ 1.94 µM)
MIC (Escherichia coli): 3.13 µg/mL (≈ 3.89 µM)

CC[C@H]1OC(=O)[C@H](C)[C@H]2OC3(CCN(c4ccc([N+](=O)[O-])cn4)CC3)O[C@](C)(C[C@@H](C)CN(C)[C@H](C)[C@@H](O)[C@]1(C)O)[C@H](O[C@@H]1O[C@H](C)CC(N(C)C)[C@H]1O)[C@H]2C (some centres undefined)
MIC (Pasteurella multocida): 0.39 µg/mL (≈ 0.491 µM)
MIC (Staphylococcus aureus): 3.13 µg/mL (≈ 3.94 µM)
MIC (Escherichia coli): 6.25 µg/mL (≈ 7.87 µM)

CC[C@H]1OC(=O)[C@H](C)[C@H]2OC3(CCN(c4ncccn4)CC3)O[C@](C)(C[C@@H](C)CN(C)[C@H](C)[C@@H](O)[C@]1(C)O)[C@H](O[C@@H]1O[C@H](C)CC(N(C)C)[C@H]1O)[C@H]2C (some centres undefined)
MIC (Pasteurella multocida): 0.1 µg/mL (≈ 0.133 µM)
MIC (Staphylococcus aureus): 1.56 µg/mL (≈ 2.08 µM)
MIC (Escherichia coli): 1.56 µg/mL (≈ 2.08 µM)

CC[C@H]1OC(=O)[C@H](C)[C@H]2OC3(CCN(c4nccc(C(F)(F)F)n4)CC3)O[C@](C)(C[C@@H](C)CN(C)[C@H](C)[C@@H](O)[C@]1(C)O)[C@H](O[C@@H]1O[C@H](C)CC(N(C)C)[C@H]1O)[C@H]2C (some centres undefined)
MIC (Pasteurella multocida): 1.56 µg/mL (≈ 1.91 µM)
MIC (Staphylococcus aureus): 6.25 µg/mL (≈ 7.64 µM)
MIC (Escherichia coli): 12.5 µg/mL (≈ 15.3 µM)

CC[C@H]1OC(=O)[C@H](C)[C@H]2OC3(CCN(c4ccc(C(=O)OCc5ccccc5)cc4)CC3)O[C@](C)(C[C@@H](C)CN(C)[C@H](C)[C@@H](O)[C@]1(C)O)[C@H](O[C@@H]1O[C@H](C)CC(N(C)C)[C@H]1O)[C@H]2C (some centres undefined)
MIC (Pasteurella multocida): 0.39 µg/mL (≈ 0.442 µM)
MIC (Staphylococcus aureus): 3.13 µg/mL (≈ 3.55 µM)
MIC (Escherichia coli): 3.13 µg/mL (≈ 3.55 µM)

CC[C@H]1OC(=O)[C@H](C)[C@H]2OC3(CCN(c4ccc(C(N)=O)cn4)CC3)O[C@](C)(C[C@@H](C)CN[C@H](C)[C@@H](O)[C@]1(C)O)[C@H](O[C@@H]1O[C@H](C)CC(N(C)C)[C@H]1O)[C@H]2C (some centres undefined)
MIC (Pasteurella multocida): 0.2 µg/mL (≈ 0.257 µM)
MIC (Staphylococcus aureus): 1.56 µg/mL (≈ 2.01 µM)
MIC (Escherichia coli): 6.25 µg/mL (≈ 8.03 µM)

CC[C@H]1OC(=O)[C@H](C)[C@H]2OC3(CCN(c4ncccc4[N+](=O)[O-])CC3)O[C@](C)(C[C@@H](C)CN[C@H](C)[C@@H](O)[C@]1(C)O)[C@H](O[C@@H]1O[C@H](C)CC(N(C)C)[C@H]1O)[C@H]2C (some centres undefined)
MIC (Pasteurella multocida): 0.2 µg/mL (≈ 0.256 µM)
MIC (Staphylococcus aureus): 0.78 µg/mL (≈ 1 µM)
MIC (Escherichia coli): 6.25 µg/mL (≈ 8.01 µM)

CC[C@H]1OC(=O)[C@H](C)[C@H]2OC3(CCN(c4cc(OC)nc(OC)n4)CC3)O[C@](C)(C[C@@H](C)CN[C@H](C)[C@@H](O)[C@]1(C)O)[C@H](O[C@@H]1O[C@H](C)CC(N(C)C)[C@H]1O)[C@H]2C (some centres undefined)
MIC (Pasteurella multocida): 0.2 µg/mL (≈ 0.251 µM)
MIC (Staphylococcus aureus): 1.56 µg/mL (≈ 1.96 µM)
MIC (Escherichia coli): 3.13 µg/mL (≈ 3.93 µM)

CC[C@H]1OC(=O)[C@H](C)[C@H]2OC3(CCN(c4nccs4)CC3)O[C@](C)(C[C@@H](C)CN(C)[C@H](C)[C@@H](O)[C@]1(C)O)[C@H](O[C@@H]1O[C@H](C)CC(N(C)C)[C@H]1O)[C@H]2C (some centres undefined)
MIC (Pasteurella multocida): 0.39 µg/mL (≈ 0.517 µM)
MIC (Staphylococcus aureus): 3.13 µg/mL (≈ 4.15 µM)
MIC (Escherichia coli): 3.13 µg/mL (≈ 4.15 µM)

CC[C@H]1OC(=O)[C@H](C)[C@H]2OC3(CCN(c4ccc(C(=O)OCc5ccccc5)c(C(F)(F)F)c4)CC3)O[C@](C)(C[C@@H](C)CN(C)[C@H](C)[C@@H](O)[C@]1(C)O)[C@H](O[C@@H]1O[C@H](C)CC(N(C)C)[C@H]1O)[C@H]2C (some centres undefined)
MIC (Pasteurella multocida): 0.39 µg/mL (≈ 0.41 µM)
MIC (Staphylococcus aureus): 0.78 µg/mL (≈ 0.821 µM)
MIC (Escherichia coli): 3.13 µg/mL (≈ 3.29 µM)

CC[C@H]1OC(=O)[C@H](C)[C@H]2OC3(CCN(c4ncc(C(=O)OCc5ccccc5)c(C(F)(F)F)n4)CC3)O[C@](C)(C[C@@H](C)CN[C@H](C)[C@@H](O)[C@]1(C)O)[C@H](O[C@@H]1O[C@H](C)CC(N(C)C)[C@H]1O)[C@H]2C (some centres undefined)
MIC (Pasteurella multocida): > 50 µg/mL
MIC (Staphylococcus aureus): 0.78 µg/mL (≈ 0.831 µM)
MIC (Escherichia coli): > 50 µg/mL

CC[C@H]1OC(=O)[C@H](C)[C@H]2OC3(CCN(c4ccc(C#N)cc4)CC3)O[C@](C)(C[C@@H](C)CN(C)[C@H](C)[C@@H](O)[C@]1(C)O)[C@H](O[C@@H]1O[C@H](C)CC(N(C)C)[C@H]1O)[C@H]2C (some centres undefined)
MIC (Pasteurella multocida): 0.39 µg/mL (≈ 0.505 µM)
MIC (Staphylococcus aureus): 3.13 µg/mL (≈ 4.05 µM)
MIC (Escherichia coli): 25 µg/mL (≈ 32.3 µM)

CC[C@H]1OC(=O)[C@H](C)C2OC3(CCNCC3)O[C@](C)(C[C@@H](C)CN(C)[C@H](C)[C@@H](O)[C@]1(C)O)[C@H](O[C@@H]1O[C@H](C)C[C@H](N(C)C)[C@H]1O)[C@H]2C
MIC (Pasteurella multocida): < 0.05 µg/mL
MIC (Staphylococcus aureus): 6.25 µg/mL (≈ 9.3 µM)
MIC (Escherichia coli): 0.39 µg/mL (≈ 0.58 µM)

CC[C@H]1OC(=O)[C@H](C)[C@H]2OC3(CCN(c4ccc([N+](=O)[O-])c(N)n4)CC3)O[C@](C)(C[C@@H](C)CN[C@H](C)[C@@H](O)[C@]1(C)O)[C@H](O[C@@H]1O[C@H](C)CC(N(C)C)[C@H]1O)[C@H]2C (some centres undefined)
MIC (Pasteurella multocida): 0.1 µg/mL (≈ 0.126 µM)
MIC (Staphylococcus aureus): 1.56 µg/mL (≈ 1.96 µM)
MIC (Escherichia coli): 3.13 µg/mL (≈ 3.94 µM)

CC[C@H]1OC(=O)[C@H](C)[C@H]2OC3(CCN(c4ncc(C(=O)NCc5ccncc5)cn4)CC3)O[C@](C)(C[C@@H](C)CN(C)[C@H](C)[C@@H](O)[C@]1(C)O)[C@H](O[C@@H]1O[C@H](C)CC(N(C)C)[C@H]1O)[C@H]2C (some centres undefined)
MIC (Pasteurella multocida): > 50 µg/mL
MIC (Staphylococcus aureus): 3.52 µg/mL (≈ 3.98 µM)
MIC (Escherichia coli): > 50 µg/mL

CC[C@H]1OC(=O)[C@H](C)[C@H]2OC3(CCN(c4ccc(C)nn4)CC3)O[C@](C)(C[C@@H](C)CN(C)[C@H](C)[C@@H](O)[C@]1(C)O)[C@H](O[C@@H]1O[C@H](C)CC(N(C)C)[C@H]1O)[C@H]2C (some centres undefined)
MIC (Pasteurella multocida): 0.2 µg/mL (≈ 0.262 µM)
MIC (Staphylococcus aureus): 6.25 µg/mL (≈ 8.18 µM)
MIC (Escherichia coli): 3.13 µg/mL (≈ 4.1 µM)

CC[C@H]1OC(=O)[C@H](C)[C@H]2OC3(CCN(c4ccc(C(=O)N(C)c5ccncc5)cc4F)CC3)O[C@](C)(C[C@@H](C)CN(C)[C@H](C)[C@@H](O)[C@]1(C)O)[C@H](O[C@@H]1O[C@H](C)CC(N(C)C)[C@H]1O)[C@H]2C (some centres undefined)
MIC (Pasteurella multocida): 0.2 µg/mL (≈ 0.222 µM)
MIC (Staphylococcus aureus): 3.13 µg/mL (≈ 3.48 µM)
MIC (Escherichia coli): 1.56 µg/mL (≈ 1.73 µM)

CC[C@H]1OC(=O)[C@H](C)[C@H]2OC3(CCN(c4ccccc4[N+](=O)[O-])CC3)O[C@](C)(C[C@@H](C)CN(C)[C@H](C)[C@@H](O)[C@]1(C)O)[C@H](O[C@@H]1O[C@H](C)CC(N(C)C)[C@H]1O)[C@H]2C (some centres undefined)
MIC (Pasteurella multocida): 0.39 µg/mL (≈ 0.492 µM)
MIC (Staphylococcus aureus): 1.56 µg/mL (≈ 1.97 µM)
MIC (Escherichia coli): 3.13 µg/mL (≈ 3.95 µM)
